Measurements as given in patent US20100075926A1, “ACTIVATION OF HISTONE DEACETYLASE 1 (HDAC1) PROTECTS AGAINST DNA DAMAGE AND INCREASES NEURONAL SURVIVAL” (priority 2008, published 2010).

Key:
primary cortical neurons = assay: γH2AX and Ki-67 immunostaining of primary cortical neurons treated with HDAC1 inhibitor; format: cell-based; conditions: 1 μM, 24 h, compared to vehicle (DMSO) controls
Method: (A, B) Primary cortical neurons were transfected with either HDAC1 siRNA or random sequence siRNA, along with GFP at a 7:1 ratio to label transfected neurons. Cells were fixed at 24 h, 48 h, and 72 h post-transfection and immunostained for γH2AX. GFP-positive neurons were scored for γH2AX immunoreactivity and for cell death based on nuclear condensation and neuritic integrity, as described in Methods. (A) Representative micrographs. HDAC1 siRNA or control (random sequence) siRNA transfected neurons are indicated by arrows. The HDAC1 siRNA transfected neurons display neuritic breakage. The inset is a magnification of the γH2AX staining of the neuron indicated by arrow and asterisk, showing γH2AX foci of varying sizes. Percentage of γH2AX and cell death are shown as averages from multiple sets ±S.D. It was noted that transfection of control siRNA per se appeared to cause a low but detectable level of γH2AX immunoreactivity and cell death. […] Controls were treated with equal amounts of vehicle (DMSO). Total numbers of γH2AX and Ki-67 positive neurons were quantified over 20 microscope fields (field diameter ˜900 μm). Scale bar=100 μm. […] Scale bar=[…].
Our findings raised the possibility that p25/cdk5 may cause both cell cycle reentry and DNA damage through inhibition of HDAC1 activity. We examined the effects of siRNA-mediated knockdown or pharmacological inhibition of HDAC1.

WT mice = assay: Contextual fear conditioning in WT mice; format: in vivo, mouse
Method: Fear conditioning. Fear conditioning experiments were carried out as previously described (Kim et al., 2007), using a fear conditioning apparatus (TSE Systems, Midland, Mich.).

leukemia patients = conditions: phase I clinical trial; cited from earlier work
[1] = tested on: brain-derived neurotrophic factor (BDNF) expression in glioma cell line (C6); assay: BDNF expression in glioma cell line (C6); format: cell-based; conditions: submicromolar concentrations, data not shown
recombinant human HDAC10 = target: T1, recombinant human HDAC10 (Homo sapiens, UniProt Q969S8); assay: Caliper mobility shift deacetylase assay, HDAC10; format: biochemical; conditions: at the indicated concentration (8-40 μM); avg. n = 2; relative to DMSO
T1 sequence (Q969S8 1-669): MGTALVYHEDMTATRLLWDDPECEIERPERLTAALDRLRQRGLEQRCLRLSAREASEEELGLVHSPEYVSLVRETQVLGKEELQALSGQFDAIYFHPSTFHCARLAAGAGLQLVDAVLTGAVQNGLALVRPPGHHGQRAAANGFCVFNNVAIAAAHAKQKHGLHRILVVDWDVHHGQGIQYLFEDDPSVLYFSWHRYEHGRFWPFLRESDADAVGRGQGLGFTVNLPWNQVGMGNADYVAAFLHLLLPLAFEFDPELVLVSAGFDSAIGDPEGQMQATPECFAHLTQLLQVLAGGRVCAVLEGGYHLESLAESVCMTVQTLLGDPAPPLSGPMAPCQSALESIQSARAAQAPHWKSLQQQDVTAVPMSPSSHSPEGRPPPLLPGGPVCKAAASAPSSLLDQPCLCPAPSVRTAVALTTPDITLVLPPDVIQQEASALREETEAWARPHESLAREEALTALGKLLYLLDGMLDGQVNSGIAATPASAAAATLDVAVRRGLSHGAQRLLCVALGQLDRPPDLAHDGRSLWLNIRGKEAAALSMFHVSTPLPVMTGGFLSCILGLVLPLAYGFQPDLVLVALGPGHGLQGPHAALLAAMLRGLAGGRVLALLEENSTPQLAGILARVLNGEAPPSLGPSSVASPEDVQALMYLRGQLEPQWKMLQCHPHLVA
Method: (§1) To identify small molecule activators of HDAC1, a diverse collection of 1,760 small molecules composed of synthetic compounds, natural products, and a subset of FDA approved drugs were arrayed in 384-well plates as ˜10 mM dimethylsulphoxide (DMSO) stocks. To identify modulators (both activators and inhibitors) of HDACs, a fluorescence-based assay that utilizes Caliper's mobility shift assay technology (Hopkinton, Mass.) was used. This assay is based on the electrophoretic separation of N-acetyl lysine peptide substrate from the deacetylated product, which bears an additional positive charge. […] The product and substrate in each independent reaction were separated using a microfluidic chip (Caliper Life Sciences) run on a Caliper LC3000 (Caliper Life Sciences). The product and substrate fluorophore were excited at 488 nm and detected at 530 nm. Substrate conversion was calculated from the electrophoregram using HTS Well Analyzer software (Caliper Life Sciences). Since the amount of converted substrate is measured, and the reactions were performed at the Km for each enzyme, it is possible to identify both inhibitors and activators of HDACs using this assay.
(§2) Using the mobility shift assay, all compounds were screened in duplicate using a panel of class I and class II HDACs and a N-acetyl lysine peptide substrate. For class I HDACs, HDAC1, HDAC2, and HDAC8 were used. For class IIb HDACs, HDAC6 and to HDAC10 were used. Compounds were incubated for 18-24 hrs and the percent inhibition (avg. n=2) relative to a solvent (DMSO) control treatment of each compound determined through measurement of substrate conversion.

recombinant human HDAC6 = target: T2, recombinant human HDAC6 (Homo sapiens, UniProt Q9UBN7); assay: Caliper mobility shift deacetylase assay, HDAC6; format: biochemical; conditions: at the indicated concentration (8-40 μM); avg. n = 2; relative to DMSO
T2 sequence (Q9UBN7 1-1215): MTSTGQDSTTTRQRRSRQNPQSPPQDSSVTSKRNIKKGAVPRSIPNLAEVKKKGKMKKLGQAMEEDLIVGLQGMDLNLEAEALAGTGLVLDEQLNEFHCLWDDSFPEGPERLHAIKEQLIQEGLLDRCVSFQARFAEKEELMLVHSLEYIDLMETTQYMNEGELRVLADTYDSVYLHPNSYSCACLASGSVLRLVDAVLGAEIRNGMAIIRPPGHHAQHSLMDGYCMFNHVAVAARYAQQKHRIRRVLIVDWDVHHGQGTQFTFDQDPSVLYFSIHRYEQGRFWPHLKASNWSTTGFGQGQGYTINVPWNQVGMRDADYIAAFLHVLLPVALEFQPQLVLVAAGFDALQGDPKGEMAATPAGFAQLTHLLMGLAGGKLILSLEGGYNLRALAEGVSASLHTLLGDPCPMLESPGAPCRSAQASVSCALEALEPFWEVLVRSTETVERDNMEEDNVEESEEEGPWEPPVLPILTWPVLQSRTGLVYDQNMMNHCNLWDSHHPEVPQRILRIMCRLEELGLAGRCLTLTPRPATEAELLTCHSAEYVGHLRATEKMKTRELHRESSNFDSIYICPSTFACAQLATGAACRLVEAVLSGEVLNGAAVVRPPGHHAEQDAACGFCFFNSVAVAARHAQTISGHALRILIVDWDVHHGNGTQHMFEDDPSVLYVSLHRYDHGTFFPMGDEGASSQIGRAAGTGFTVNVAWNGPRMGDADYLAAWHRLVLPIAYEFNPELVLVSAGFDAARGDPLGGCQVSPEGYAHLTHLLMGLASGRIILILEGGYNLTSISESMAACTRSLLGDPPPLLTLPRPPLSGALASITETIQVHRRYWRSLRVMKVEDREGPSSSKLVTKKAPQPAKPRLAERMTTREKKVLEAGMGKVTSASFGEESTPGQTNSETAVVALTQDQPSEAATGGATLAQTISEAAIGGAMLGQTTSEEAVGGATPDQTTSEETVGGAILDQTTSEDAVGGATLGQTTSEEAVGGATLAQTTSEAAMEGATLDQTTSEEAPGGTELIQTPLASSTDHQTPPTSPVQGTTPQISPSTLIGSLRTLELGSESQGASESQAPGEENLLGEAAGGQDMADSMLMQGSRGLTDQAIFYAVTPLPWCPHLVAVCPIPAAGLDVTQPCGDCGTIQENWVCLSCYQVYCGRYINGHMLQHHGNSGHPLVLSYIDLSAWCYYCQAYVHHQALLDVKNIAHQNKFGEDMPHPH
Method: as §1, §2

recombinant human HDAC2 = target: T3, recombinant human HDAC2 (Homo sapiens, UniProt Q92769); assay: Caliper mobility shift deacetylase assay, HDAC2; format: biochemical; conditions: at the indicated concentration (8-40 μM); avg. n = 2; relative to DMSO
T3 construct: purchased BPS Biosciences
T3 sequence (Q92769 whole entry): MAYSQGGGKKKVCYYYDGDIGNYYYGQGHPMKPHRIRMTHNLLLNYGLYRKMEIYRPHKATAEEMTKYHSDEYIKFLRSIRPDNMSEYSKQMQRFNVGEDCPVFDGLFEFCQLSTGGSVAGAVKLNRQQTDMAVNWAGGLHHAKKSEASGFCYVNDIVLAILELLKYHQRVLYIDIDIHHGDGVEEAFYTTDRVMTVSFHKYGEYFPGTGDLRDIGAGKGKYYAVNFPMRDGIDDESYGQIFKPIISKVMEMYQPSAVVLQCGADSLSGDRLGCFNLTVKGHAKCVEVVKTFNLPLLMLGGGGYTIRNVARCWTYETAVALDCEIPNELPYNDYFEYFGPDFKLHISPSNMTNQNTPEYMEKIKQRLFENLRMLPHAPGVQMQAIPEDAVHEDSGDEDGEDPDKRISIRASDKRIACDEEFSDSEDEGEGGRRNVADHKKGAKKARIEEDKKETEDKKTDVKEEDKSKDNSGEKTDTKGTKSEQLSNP
From the text: (§3) Values indicate % deacetylase inhibition (avg. n=2) relative to a solvent (DMSO) control treatment measured using recombinant human HDAC1 or HDAC2 and Caliper's mobility shift assay technology. Circle color corresponds to compounds shaded by degree of HDAC1 activity (red, decreased; blue, increased). (A) Complete dataset with box outlined with the red dashes corresponding to the region shown highlighted in (B), which in the assay corresponds to negative inhibition.
as §1
as §2, with “conversion. […] FIG. 11 provides a list of all of the structures that activated HDAC1 by a value of 5% or greater.” for “conversion.”

recombinant human HDAC1 = target: T4, recombinant human HDAC1 (Homo sapiens, UniProt Q13547); assay: Caliper mobility shift deacetylase assay, HDAC1; format: biochemical; conditions: at the indicated concentration (8-40 μM); avg. n = 2; relative to DMSO
T4 construct: purchased BPS Biosciences
T4 sequence (Q13547 whole entry): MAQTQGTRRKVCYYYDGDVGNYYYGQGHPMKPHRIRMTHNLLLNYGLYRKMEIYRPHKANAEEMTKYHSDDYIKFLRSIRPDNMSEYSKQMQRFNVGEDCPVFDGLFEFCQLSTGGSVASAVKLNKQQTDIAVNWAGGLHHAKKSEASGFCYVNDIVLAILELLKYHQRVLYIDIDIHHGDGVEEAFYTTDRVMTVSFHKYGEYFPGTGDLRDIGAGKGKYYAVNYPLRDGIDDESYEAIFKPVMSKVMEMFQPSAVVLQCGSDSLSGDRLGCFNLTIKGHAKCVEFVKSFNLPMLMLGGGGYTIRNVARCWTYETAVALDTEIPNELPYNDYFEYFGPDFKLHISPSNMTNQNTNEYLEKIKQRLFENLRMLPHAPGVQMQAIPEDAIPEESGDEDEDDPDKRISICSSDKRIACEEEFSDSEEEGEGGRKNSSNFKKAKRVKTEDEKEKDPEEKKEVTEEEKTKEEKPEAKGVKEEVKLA
From the text: as §3, §1
as §2, with “conversion. […] FIG. 11 provides a list of all of the structures that activated HDAC1 by a value of 5% or greater.” for “conversion.”

recombinant human HDAC8 = target: T5, recombinant human HDAC8 (Homo sapiens, UniProt Q9BY41); assay: Caliper mobility shift deacetylase assay, HDAC8; format: biochemical; conditions: at the indicated concentration (8-40 μM); avg. n = 2; relative to DMSO
T5 sequence (Q9BY41 1-377): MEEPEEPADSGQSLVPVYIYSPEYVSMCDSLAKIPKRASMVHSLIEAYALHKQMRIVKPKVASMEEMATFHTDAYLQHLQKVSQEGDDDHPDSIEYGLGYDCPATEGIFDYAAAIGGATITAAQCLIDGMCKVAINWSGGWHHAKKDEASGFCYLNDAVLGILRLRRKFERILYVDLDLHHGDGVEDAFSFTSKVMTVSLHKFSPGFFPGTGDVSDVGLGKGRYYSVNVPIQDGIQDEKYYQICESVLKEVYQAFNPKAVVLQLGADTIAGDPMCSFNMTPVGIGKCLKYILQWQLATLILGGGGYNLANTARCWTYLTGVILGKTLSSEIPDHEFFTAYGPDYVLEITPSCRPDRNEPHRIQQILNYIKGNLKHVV
Method: as §1, §2

Compound | aberrant expression of Ki-67 (Ki-67 positive neurons) (primary cortical neurons) | double strand DNA breaks (γH2AX positive neurons) (primary cortical neurons) | freezing behavior in contextual fear conditioning (WT mice; 25 mg/kg IP daily for 10 days, vs saline) | associative learning capability (contextual fear conditioning) (WT mice; 12.5 or 25 mg/kg IP daily for 10 days) | dose-limiting toxicity (DLT) (leukemia patients) | expression of brain-derived neurotrophic factor (BDNF) [1] | HDAC10 % activation of deacetylase activity (recombinant human HDAC10) | HDAC6 % activation of deacetylase activity (recombinant human HDAC6) | HDAC2 % activation of deacetylase activity (recombinant human HDAC2) | HDAC1 % activation of deacetylase activity (recombinant human HDAC1) | HDAC8 % activation of deacetylase activity (recombinant human HDAC8)
Nc1ccccc1NC(=O)c1ccc(CNC(=O)OCc2cccnc2)cc1 [MS-275] | 1.8 fold increase | 8.1 fold increase | reduced freezing behavior | impaired associative learning capability | neurologic toxicity manifesting as unsteady gait and somnolence |  |  |  |  |  | 
O=C(CCCCCCC(=O)Nc1ccccc1)NO [SAHA, suberoylanilide hydroxamic acid] |  |  |  |  |  | induced expression |  |  |  |  | 
CC1=NN(c2ccc(Br)cc2Br)C(=O)/C1=C(/C)NCc1ccccc1 [TAM-12] |  |  |  |  |  |  | −3% | −4% | −1% | 5% | 2%
COC(=O)[C@H]1[C@H]2C[C@H]3c4[nH]c5ccccc5c4CCN3C[C@H]2CC[C@@H]1O [alpha-yohimbine] |  |  |  |  |  |  | 1% | −2% | −5% | 5% | 0%
CC(=O)N(O)CCCCCNC(=O)CCC(=O)N(O)CCCCCNC(=O)CCC(=O)N(O)CCCCCN [deferoxamine] |  |  |  |  |  |  | 2% | −5% | −3% | 8% | 4%
CC(C)=CCC[C@]1(C)C=Cc2c(O)c3c(c(CC=C(C)C)c2O1)O[C@]12C(=C[C@@H]4C[C@H]1C(C)(C)O[C@@]2(C/C=C(/C)C(=O)O)C4=O)C3=O [gambogic acid] |  |  |  |  |  |  | 13% | −63% | −5% | 22% | −8%
COc1ccc(-c2cc(=O)c3c(O)cc(O)c(-c4cc(-c5cc(=O)c6c(O)cc(OC)cc6o5)ccc4OC)c3o2)cc1 [sciadopitysin] |  |  |  |  |  |  | 19% | −5% | −4% | 19% | 0%
O=c1c(O)cc([C@H]2Oc3cc(O)cc(O)c3C[C@H]2O)cc2c([C@H]3Oc4cc(O)cc(O)c4C[C@H]3O)cc(O)c(O)c12 [theaflavin] |  |  |  |  |  |  | 0% | −79% | −8% | 5% | −10%
ginkgetin K [genxgetin K] |  |  |  |  |  |  | 56% | −18% | −7% | 42% | −3%
tetrahydrogamboic acid |  |  |  |  |  |  | 13% | −10% | −6% | 11% | −1%
